SMILES strings stand for the structures. Values joined by “and” are separate entries in the source; they are usually repeats but may differ in a detail not shown here. Equal entries are not always repeated. Inconclusive results and toxic doses are left out.

The assay concerns L1210 leukemia ip in BDF1 mice, survival T/C. The experiment in a line: NCI In Vivo Anticancer Drug Screen. Data for tumor model L1210 Leukemia (intraperitoneal) in B6D2F1 (BDF1) mice. As to conditions: endpoint: mean survival time, higher = longer survival. In outline: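 Read-out is survival time, reported as the treated-group measurement over the vehicle-control measurement.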

The mark [1] stands for this setting: dose: 100.0 mg/kg/injection, schedule: Q01DX009 (ip), vehicle: Klucel (hydroxypropylcellulose) (HPC).
The mark [2] stands for this setting: dose: 200.0 mg/kg/injection, schedule: Q01DX009 (ip), vehicle: Klucel (hydroxypropylcellulose) (HPC).
The mark [3] stands for this setting: dose: 400.0 mg/kg/injection, schedule: Q01DX009 (ip), vehicle: Klucel (hydroxypropylcellulose) (HPC).
[4] abbreviates: dose: 100.0 mg/kg/injection, schedule: Q04DX003 (ip), vehicle: saline.
[5] abbreviates: dose: 200.0 mg/kg/injection, schedule: Q04DX003 (ip), vehicle: saline.
[6] abbreviates: dose: 100.0 mg/kg/injection, schedule: Q04DX003 (ip), vehicle: saline with Tween-80.
[7] abbreviates: dose: 200.0 mg/kg/injection, schedule: Q04DX003 (ip), vehicle: saline with Tween-80.
The mark [8] stands for this setting: dose: 400.0 mg/kg/injection, schedule: Q04DX003 (ip), vehicle: saline with Tween-80.
Setting [9] is: dose: 100.0 mg/kg/injection, schedule: Q01DX005 (ip), vehicle: saline.
The mark [10] stands for this setting: dose: 50.0 mg/kg/injection, schedule: Q01DX001 (ip), vehicle: carboxymethylcellulose (CMC).
The mark [11] stands for this setting: dose: 100.0 mg/kg/injection, schedule: Q01DX001 (ip), vehicle: carboxymethylcellulose (CMC).
[12] abbreviates: dose: 200.0 mg/kg/injection, schedule: Q01DX001 (ip), vehicle: carboxymethylcellulose (CMC).
The mark [13] stands for this setting: dose: 400.0 mg/kg/injection, schedule: Q01DX001 (ip), vehicle: carboxymethylcellulose (CMC).
Setting [14] is: dose: 50.0 mg/kg/injection, schedule: Q01DX009 (ip), vehicle: saline with Tween-80.

With `COc1ccc(COC(=O)Nc2ccc([N+](=O)[O-])cc2OC)cc1`, the T/C is, setting by setting: under setting [1], 90 % of control; under setting [2], 91 % of control; under setting [3], 106 % of control.

For `Cc1cc(SCC(=O)O)sc1C`, the T/C was 92 % of control (dose: 100.0 mg/kg/injection, schedule: Q04DX002 (ip), vehicle: Klucel (hydroxypropylcellulose) (HPC)); 107 % of control (dose: 200.0 mg/kg/injection, schedule: Q04DX002 (ip), vehicle: Klucel (hydroxypropylcellulose) (HPC)); 107 % of control (dose: 400.0 mg/kg/injection, schedule: Q04DX002 (ip), vehicle: Klucel (hydroxypropylcellulose) (HPC)).

`COC(=O)CC(=O)c1ccc(S(=O)(=O)F)cc1`: the T/C is 104 % of control under setting [1]; 98 % of control (dose: 100.0 mg/kg/injection, schedule: Q04DX003 (ip), vehicle: Klucel (hydroxypropylcellulose) (HPC)); 97 % of control under setting [2]; 96 % of control (dose: 200.0 mg/kg/injection, schedule: Q04DX003 (ip), vehicle: Klucel (hydroxypropylcellulose) (HPC)); 101 % of control under setting [3]; 100 % of control (dose: 400.0 mg/kg/injection, schedule: Q04DX003 (ip), vehicle: Klucel (hydroxypropylcellulose) (HPC)).

On to `CCOC(=O)C1OC1(C)c1ccccc1` (configuration not stated), for which the T/C reads like this: (dose: 100.0 mg/kg/injection, schedule: Q01DX009 (ip), vehicle: saline) 102 % of control; under setting [4], 100 % of control; (dose: 200.0 mg/kg/injection, schedule: Q01DX009 (ip), vehicle: saline) 100 % of control; under setting [5], 94 % of control; (dose: 400.0 mg/kg/injection, schedule: Q01DX009 (ip), vehicle: saline) 102 % of control; (dose: 400.0 mg/kg/injection, schedule: Q04DX003 (ip), vehicle: saline) 107 % of control.

As to `CC(=O)OC1CCC2(C)C(C1)C(OC(C)=O)CC1C3CCC(c4cccc(=O)o4)C3(C)CCC12` (configuration not stated), the T/C (dose: 100.0 mg/kg/injection, schedule: Q01DX001 (sc), vehicle: steriod suspending solution) is 101 % of control; the T/C (dose: 200.0 mg/kg/injection, schedule: Q01DX001 (sc), vehicle: steriod suspending solution) was 102 % of control; the T/C (dose: 400.0 mg/kg/injection, schedule: Q01DX001 (sc), vehicle: steriod suspending solution) was 112 % of control.

With `O=C(Nc1ccc(F)cc1)Nc1ccc(Cl)cc1`, the T/C by setting is: under setting [6], 86 % of control; under setting [7], 86 % of control; under setting [8], 87 % of control.

As to `O=S(=O)(OCC1CO1)c1ccc(Br)cc1` (configuration not stated), the T/C is 103 % of control (dose: 100.0 mg/kg/injection, schedule: Q01DX008 (ip), vehicle: Klucel (hydroxypropylcellulose) (HPC)); 92 % of control (dose: 200.0 mg/kg/injection, schedule: Q01DX008 (ip), vehicle: Klucel (hydroxypropylcellulose) (HPC)); 108 % of control (dose: 400.0 mg/kg/injection, schedule: Q01DX008 (ip), vehicle: Klucel (hydroxypropylcellulose) (HPC)).

For the molecule `CCN=C(N)c1ccc(N=C(N)c2cccc(C(N)=Nc3ccc(C(N)=NCC)cc3)c2)cc1`, the T/C is 104 % of control (dose: 3.75 mg/kg/injection, schedule: Q01DX Z (ip), vehicle: saline) and 120 % of control (dose: 15.0 mg/kg/injection, schedule: Q01DX Z (ip), vehicle: saline).

Take `CC(CNC1=NCCN1)c1cccc2ccccc12` (configuration not stated): the T/C is, setting by setting: (dose: 50.0 mg/kg/injection, schedule: Q01DX009 (ip), vehicle: Klucel (hydroxypropylcellulose) (HPC)) 111 % of control; under setting [1], 103 % of control; under setting [2], 108 % of control.

Take `O=C(Nc1cccnc1)c1ccc([N+](=O)[O-])s1`: the T/C reads like this: (dose: 50.0 mg/kg/injection, schedule: Q01DX005 (ip), vehicle: saline) 102 % of control; under setting [9], 117 % of control; (dose: 400.0 mg/kg/injection, schedule: Q01DX005 (ip), vehicle: saline) 173 % of control.

Take `C[N+](C)(C)C1(Cc2ccccc2)c2ccccc2-c2ccccc21`: the T/C by setting is: (dose: 25.0 mg/kg/injection, schedule: Q01DX009 (ip), vehicle: saline) 93 % of control; (dose: 25.0 mg/kg/injection, schedule: Q04DX003 (ip), vehicle: saline) 96 % of control; (dose: 50.0 mg/kg/injection, schedule: Q01DX009 (ip), vehicle: saline) 114 % of control; (dose: 50.0 mg/kg/injection, schedule: Q04DX003 (ip), vehicle: saline) 99 % of control; under setting [6], 97 % of control; under setting [4], 86 % of control.

`O=C(O)c1ccc(Cl)nc1`: the T/C by setting is: under setting [10], 97 % of control; under setting [11], 94 % of control; under setting [6], 104 % of control; under setting [12], 92 % of control; under setting [7], 103 % of control; under setting [13], 94 % of control. Besides, the T/C under setting [8] is 104 % of control.

For the molecule `C=Cc1c(C)c(O)cc2c1-c1ccc(O)c(C)c1CC2`, the T/C (dose: 6.25 mg/kg/injection, schedule: Q01DX009 (ip), vehicle: saline with Tween-80) was 102 % of control; the T/C (dose: 12.5 mg/kg/injection, schedule: Q01DX009 (ip), vehicle: saline with Tween-80) is 102 % of control; the T/C (dose: 25.0 mg/kg/injection, schedule: Q01DX009 (ip), vehicle: saline with Tween-80) was 98 % of control; the T/C under setting [14] was 91 % of control.

With `O=C1C(=O)c2ccccc2C(O)=C1c1ccc2ccccc2c1`, the T/C under setting [10] is 96 % of control, the T/C under setting [11] was 96 % of control, the T/C under setting [12] was 91 % of control and the T/C under setting [13] was 96 % of control.

For `CCCCCCCCCCCCCCCCCCCCCC1CCCC1`, the T/C was 96 % of control (dose: 100.0 mg/kg/injection, schedule: Q04DX003 (ip), vehicle: other); 94 % of control (dose: 200.0 mg/kg/injection, schedule: Q04DX003 (ip), vehicle: other); 96 % of control (dose: 400.0 mg/kg/injection, schedule: Q04DX003 (ip), vehicle: other).

Turning to `CNc1cn(C2OC(CO)C(O)C2O)c(=O)[nH]c1=O` (configuration not stated), the T/C is 96 % of control under setting [9] and 96 % of control (dose: 200.0 mg/kg/injection, schedule: Q01DX005 (ip), vehicle: saline).

For the molecule `O=C1OC(c2ccc(Cl)cc2)=N/C1=C\c1ccccc1`, the T/C runs as follows: under setting [6], 100 % of control; under setting [7], 90 % of control; under setting [8], 91 % of control.

On to `O=C1C(Cl)=C(N/N=c2/[nH][nH]/c(=N/NC3=C(Cl)C(=O)c4ccccc4C3=O)c3ccccc23)C(=O)c2ccccc21`, for which the T/C (dose: 25.0 mg/kg/injection, schedule: Q01DX001 (ip), vehicle: carboxymethylcellulose (CMC)) was 104 % of control and the T/C under setting [10] is 101 % of control.

`Cc1ccc(S(=O)(=O)N(CCCc2c(N)nc(N)nc2-c2ccccc2)c2ccccc2)cc1`: the T/C by setting is: under setting [4], 100 % of control; under setting [5], 97 % of control.

In the case of `Cc1cc(NC(=O)CCc2ccc(N3C(N)=NC(N)=NC3(C)C)cc2)ccc1S(=O)(=O)F` (tested in a mixture with another compound), the T/C reads like this: (dose: 100.0 mg/kg/injection, schedule: Q01DX001 (ip), vehicle: Klucel (hydroxypropylcellulose) (HPC)) 90 % of control; (dose: 200.0 mg/kg/injection, schedule: Q01DX001 (ip), vehicle: Klucel (hydroxypropylcellulose) (HPC)) 90 % of control; (dose: 400.0 mg/kg/injection, schedule: Q01DX001 (ip), vehicle: Klucel (hydroxypropylcellulose) (HPC)) 92 % of control.

For the molecule `COc1cccc2c1C(=O)c1c(O)c3c(c(O)c1C2=O)C[C@@](O)(C(=O)COC(=O)Cc1ccccc1)C[C@@H]3OC1CC(N)C(O)C(C)O1` (some centres not stated), the T/C reads like this: (dose: 1.3 mg/kg/injection, schedule: Q01DX009 (ip), vehicle: saline) 152 % of control; (dose: 2.0 mg/kg/injection, schedule: Q01DX009 (ip), vehicle: saline) 167 % of control; (dose: 3.0 mg/kg/injection, schedule: Q01DX009 (ip), vehicle: saline) 173 % of control; (dose: 6.8 mg/kg/injection, schedule: Q01DX009 (ip), vehicle: saline with Tween-80) 104 % of control.

`CCOc1ccc(NC(=S)NC(=O)C(C)Oc2ccccc2)cc1` (configuration not stated): the T/C is, setting by setting: under setting [14], 102 % of control; (dose: 800.0 mg/kg/injection, schedule: Q04DX002 (ip), vehicle: saline with Tween-80) 96 % of control and 101 % of control.

For the origin of these results see PubChem BioAssay AID248 (DTP/NCI, 2004).
